Test results from ChEMBL document CHEMBL5696441 (Nat Chem Biol, 2011).

Columns and labels:
[1] = target: 3-phosphoinositide-dependent protein kinase 1 (Homo sapiens) (UniProt O15530); experiment: Inhibition of human PDK1 assessed as residual activity at 1 uM using bio-4xCHKT as substrate in presence of 33P-ATP by ProQinase assay relative to control
[2] = target: Mitogen-activated protein kinase 10 (Homo sapiens) (UniProt P53779); experiment: Inhibition of human JNK3 assessed as residual activity at 1 uM using ATF2 as substrate in presence of 33P-ATP by ProQinase assay relative to control
Sequence of Mitogen-activated protein kinase 10 (Homo sapiens) (P53779 whole entry, the tested form may be a part): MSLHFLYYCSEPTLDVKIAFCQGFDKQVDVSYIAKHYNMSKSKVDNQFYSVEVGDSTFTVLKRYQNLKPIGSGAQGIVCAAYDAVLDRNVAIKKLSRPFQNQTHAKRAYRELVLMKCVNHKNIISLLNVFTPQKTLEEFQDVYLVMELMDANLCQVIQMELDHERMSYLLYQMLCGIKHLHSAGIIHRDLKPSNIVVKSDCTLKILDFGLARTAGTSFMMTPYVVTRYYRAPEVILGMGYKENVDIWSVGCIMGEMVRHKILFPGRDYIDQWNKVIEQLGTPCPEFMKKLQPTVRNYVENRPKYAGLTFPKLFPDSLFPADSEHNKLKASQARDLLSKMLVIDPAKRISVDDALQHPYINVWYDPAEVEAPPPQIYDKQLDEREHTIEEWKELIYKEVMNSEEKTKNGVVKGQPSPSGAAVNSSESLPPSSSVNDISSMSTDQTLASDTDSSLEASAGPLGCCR

[3] = target: Discoidin domain-containing receptor 2 (Homo sapiens) (UniProt Q16832); experiment: Inhibition of DDR2 (unknown origin) assessed as remaining activity at 1 uM by Kinome scan method relative to control
Sequence of Discoidin domain-containing receptor 2 (Homo sapiens) (Q16832 whole entry, the tested form may be a part): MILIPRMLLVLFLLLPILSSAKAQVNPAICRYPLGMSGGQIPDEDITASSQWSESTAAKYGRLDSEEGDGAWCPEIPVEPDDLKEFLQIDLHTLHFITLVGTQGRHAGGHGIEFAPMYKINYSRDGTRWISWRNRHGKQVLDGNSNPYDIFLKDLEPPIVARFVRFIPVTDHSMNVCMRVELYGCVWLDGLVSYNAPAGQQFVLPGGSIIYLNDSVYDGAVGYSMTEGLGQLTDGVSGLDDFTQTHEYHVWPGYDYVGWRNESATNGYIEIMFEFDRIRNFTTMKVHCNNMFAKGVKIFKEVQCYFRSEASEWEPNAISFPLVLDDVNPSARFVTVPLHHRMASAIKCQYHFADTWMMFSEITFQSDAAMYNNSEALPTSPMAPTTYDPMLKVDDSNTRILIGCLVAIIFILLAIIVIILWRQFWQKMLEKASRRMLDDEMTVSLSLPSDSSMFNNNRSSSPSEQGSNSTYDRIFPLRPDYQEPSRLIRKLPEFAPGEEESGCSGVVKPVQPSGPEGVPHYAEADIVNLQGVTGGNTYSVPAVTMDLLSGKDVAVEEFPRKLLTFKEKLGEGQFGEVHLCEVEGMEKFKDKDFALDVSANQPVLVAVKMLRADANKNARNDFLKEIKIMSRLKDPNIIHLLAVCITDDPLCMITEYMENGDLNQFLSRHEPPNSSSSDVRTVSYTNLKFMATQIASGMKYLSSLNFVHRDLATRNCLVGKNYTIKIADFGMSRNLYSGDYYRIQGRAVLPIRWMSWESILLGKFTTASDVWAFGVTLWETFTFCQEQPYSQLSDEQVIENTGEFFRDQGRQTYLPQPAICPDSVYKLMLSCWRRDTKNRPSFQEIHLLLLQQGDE

[4] = target: Serine/threonine-protein kinase N2 (Homo sapiens) (UniProt Q16513); experiment: Inhibition of human PRK2 assessed as residual activity at 1 uM using RBER-CHKtide as substrate in presence of 33P-ATP by ProQinase assay relative to control
Sequence of Serine/threonine-protein kinase N2 (Homo sapiens) (Q16513 whole entry, looked up): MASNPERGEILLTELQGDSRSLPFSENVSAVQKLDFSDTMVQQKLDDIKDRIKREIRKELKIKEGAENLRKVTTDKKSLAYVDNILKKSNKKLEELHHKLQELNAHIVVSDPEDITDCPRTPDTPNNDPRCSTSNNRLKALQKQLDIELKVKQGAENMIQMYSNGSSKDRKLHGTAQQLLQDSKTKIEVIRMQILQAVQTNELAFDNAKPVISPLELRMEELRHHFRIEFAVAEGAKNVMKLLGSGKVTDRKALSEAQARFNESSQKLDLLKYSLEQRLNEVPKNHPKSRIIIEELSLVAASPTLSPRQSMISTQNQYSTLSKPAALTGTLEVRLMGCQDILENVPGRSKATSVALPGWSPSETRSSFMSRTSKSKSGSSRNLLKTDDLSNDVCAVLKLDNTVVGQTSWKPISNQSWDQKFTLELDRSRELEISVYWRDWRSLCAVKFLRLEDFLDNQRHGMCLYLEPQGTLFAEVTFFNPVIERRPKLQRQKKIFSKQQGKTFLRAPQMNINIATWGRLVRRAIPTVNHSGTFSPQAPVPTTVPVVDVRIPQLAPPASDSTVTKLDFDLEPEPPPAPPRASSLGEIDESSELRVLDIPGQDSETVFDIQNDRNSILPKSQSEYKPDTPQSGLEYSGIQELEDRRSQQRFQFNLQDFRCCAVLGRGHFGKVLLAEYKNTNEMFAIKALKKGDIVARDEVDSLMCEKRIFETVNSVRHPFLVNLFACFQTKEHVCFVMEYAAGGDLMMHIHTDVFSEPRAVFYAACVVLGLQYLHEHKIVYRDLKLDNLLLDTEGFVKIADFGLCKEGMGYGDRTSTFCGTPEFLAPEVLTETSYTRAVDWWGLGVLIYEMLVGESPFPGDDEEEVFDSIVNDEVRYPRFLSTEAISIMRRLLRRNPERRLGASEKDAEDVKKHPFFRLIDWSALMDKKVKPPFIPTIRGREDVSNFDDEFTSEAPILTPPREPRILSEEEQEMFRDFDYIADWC

[5] = target: T1, Serine/threonine-protein kinase Nek1 (Homo sapiens) (UniProt Q96PY6); experiment: Inhibition of human NEK1 assessed as residual activity at 1 uM using RBER-CHKtide as substrate in presence of 33P-ATP by ProQinase assay relative to control
T1 sequence (whole entry): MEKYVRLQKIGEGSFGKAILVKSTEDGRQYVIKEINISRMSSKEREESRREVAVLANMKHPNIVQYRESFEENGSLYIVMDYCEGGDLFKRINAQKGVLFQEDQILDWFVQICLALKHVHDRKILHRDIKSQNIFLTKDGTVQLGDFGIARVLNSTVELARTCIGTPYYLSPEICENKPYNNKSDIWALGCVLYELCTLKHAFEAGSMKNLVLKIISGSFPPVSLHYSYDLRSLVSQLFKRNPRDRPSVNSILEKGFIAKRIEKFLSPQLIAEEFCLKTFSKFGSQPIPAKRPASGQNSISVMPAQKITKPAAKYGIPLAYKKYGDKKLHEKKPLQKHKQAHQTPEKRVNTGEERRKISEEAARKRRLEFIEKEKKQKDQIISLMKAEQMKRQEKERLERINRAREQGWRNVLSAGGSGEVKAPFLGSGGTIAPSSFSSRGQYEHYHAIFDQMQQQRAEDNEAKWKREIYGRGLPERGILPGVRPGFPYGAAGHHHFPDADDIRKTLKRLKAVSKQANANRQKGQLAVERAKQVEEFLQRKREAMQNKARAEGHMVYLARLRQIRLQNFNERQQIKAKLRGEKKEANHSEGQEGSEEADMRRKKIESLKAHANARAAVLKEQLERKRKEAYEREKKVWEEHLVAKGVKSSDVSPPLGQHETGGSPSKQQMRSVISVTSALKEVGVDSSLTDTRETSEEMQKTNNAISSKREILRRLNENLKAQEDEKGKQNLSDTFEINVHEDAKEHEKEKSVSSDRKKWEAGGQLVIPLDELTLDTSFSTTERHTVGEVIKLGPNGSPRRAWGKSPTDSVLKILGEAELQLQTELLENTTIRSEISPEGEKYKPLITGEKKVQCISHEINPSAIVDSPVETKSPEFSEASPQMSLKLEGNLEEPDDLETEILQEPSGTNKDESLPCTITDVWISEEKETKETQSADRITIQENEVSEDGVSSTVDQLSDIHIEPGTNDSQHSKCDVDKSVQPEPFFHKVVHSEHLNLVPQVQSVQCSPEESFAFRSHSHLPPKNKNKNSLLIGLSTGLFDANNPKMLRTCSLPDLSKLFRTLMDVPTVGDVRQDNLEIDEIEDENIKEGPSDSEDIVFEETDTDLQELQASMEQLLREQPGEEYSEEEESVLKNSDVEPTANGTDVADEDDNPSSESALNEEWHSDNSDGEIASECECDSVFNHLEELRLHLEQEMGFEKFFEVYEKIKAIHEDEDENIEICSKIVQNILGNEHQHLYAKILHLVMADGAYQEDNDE

[6] = system: Tyrosine-protein kinase ABL1 (Homo sapiens), P00519 [Q252H]; experiment: Inhibition of ABL1 Q252H mutant (unknown origin) assessed as remaining activity at 1 uM by Kinome scan method relative to control
[7] = target: MAP kinase-activated protein kinase 3 (Homo sapiens) (UniProt Q16644); experiment: Inhibition of human MAPKAPK3 assessed as residual activity at 1 uM using bio-4xCHKT as substrate in presence of 33P-ATP by ProQinase assay relative to control
Sequence of MAP kinase-activated protein kinase 3 (Homo sapiens) (Q16644 whole entry, looked up): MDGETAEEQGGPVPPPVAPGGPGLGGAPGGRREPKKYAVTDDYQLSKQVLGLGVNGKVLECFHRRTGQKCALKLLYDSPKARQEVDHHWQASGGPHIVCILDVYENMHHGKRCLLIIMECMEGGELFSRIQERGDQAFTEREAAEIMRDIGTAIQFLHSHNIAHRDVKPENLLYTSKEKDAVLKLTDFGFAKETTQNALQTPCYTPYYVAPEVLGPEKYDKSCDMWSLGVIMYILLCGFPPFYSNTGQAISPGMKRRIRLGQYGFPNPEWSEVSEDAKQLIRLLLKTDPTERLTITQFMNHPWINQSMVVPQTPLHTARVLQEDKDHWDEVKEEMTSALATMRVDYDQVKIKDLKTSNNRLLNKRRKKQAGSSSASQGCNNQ

[8] = target: T2, cGMP-dependent protein kinase 1 (Homo sapiens) (UniProt Q13976); experiment: Inhibition of human PRKG1 assessed as residual activity at 1 uM using 3xChocktide-PKC(19-31) as substrate in presence of 33P-ATP by ProQinase assay relative to control
T2 sequence (whole entry): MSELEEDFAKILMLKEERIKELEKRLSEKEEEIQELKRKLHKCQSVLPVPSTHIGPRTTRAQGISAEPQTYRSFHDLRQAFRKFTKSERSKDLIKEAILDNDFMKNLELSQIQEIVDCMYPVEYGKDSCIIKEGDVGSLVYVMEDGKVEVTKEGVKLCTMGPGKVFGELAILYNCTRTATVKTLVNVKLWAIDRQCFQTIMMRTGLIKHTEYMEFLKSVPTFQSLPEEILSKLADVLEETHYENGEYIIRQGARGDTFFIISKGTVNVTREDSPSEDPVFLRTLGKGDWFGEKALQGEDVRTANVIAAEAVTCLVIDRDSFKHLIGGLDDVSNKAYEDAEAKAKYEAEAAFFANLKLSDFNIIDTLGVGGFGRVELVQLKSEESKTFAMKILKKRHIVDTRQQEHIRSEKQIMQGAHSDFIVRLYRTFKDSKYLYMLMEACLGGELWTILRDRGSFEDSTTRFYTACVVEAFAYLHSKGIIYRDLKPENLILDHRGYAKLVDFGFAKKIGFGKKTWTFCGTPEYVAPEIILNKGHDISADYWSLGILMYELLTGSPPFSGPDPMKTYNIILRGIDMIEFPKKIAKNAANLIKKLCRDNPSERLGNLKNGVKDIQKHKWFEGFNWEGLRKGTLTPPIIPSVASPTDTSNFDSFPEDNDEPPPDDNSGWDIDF

[9] = target: Serine/threonine-protein kinase Nek5 (Homo sapiens) (UniProt Q6P3R8); experiment: Inhibition of NEK5 (unknown origin) assessed as remaining activity at 1 uM by Kinome scan method relative to control
Sequence of Serine/threonine-protein kinase Nek5 (Homo sapiens) (Q6P3R8 whole entry): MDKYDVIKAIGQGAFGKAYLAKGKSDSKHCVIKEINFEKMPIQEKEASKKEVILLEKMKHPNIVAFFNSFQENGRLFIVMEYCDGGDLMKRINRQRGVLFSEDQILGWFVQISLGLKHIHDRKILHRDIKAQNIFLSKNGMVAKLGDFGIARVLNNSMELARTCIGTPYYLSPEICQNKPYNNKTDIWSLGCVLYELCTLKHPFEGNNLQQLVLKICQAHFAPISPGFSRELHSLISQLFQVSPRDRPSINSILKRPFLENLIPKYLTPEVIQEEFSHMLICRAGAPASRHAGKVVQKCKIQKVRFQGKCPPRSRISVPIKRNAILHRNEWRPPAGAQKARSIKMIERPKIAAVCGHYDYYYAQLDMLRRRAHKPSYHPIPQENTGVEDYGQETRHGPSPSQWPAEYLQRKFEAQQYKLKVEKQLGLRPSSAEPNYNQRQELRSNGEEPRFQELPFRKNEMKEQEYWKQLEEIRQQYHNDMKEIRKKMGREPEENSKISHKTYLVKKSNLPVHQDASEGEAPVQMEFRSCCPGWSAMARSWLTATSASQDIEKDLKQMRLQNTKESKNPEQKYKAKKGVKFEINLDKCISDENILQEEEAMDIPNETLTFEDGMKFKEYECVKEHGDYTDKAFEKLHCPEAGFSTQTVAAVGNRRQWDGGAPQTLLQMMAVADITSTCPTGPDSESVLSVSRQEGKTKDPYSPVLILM

[10] = target: Mitogen-activated protein kinase kinase kinase 9 (Homo sapiens) (UniProt P80192); experiment: Inhibition of human MAP3K9 assessed as residual activity at 1 uM using RBER-GSK3 as substrate in presence of 33P-ATP by ProQinase assay relative to control
Sequence of Mitogen-activated protein kinase kinase kinase 9 (Homo sapiens) (P80192 whole entry, looked up): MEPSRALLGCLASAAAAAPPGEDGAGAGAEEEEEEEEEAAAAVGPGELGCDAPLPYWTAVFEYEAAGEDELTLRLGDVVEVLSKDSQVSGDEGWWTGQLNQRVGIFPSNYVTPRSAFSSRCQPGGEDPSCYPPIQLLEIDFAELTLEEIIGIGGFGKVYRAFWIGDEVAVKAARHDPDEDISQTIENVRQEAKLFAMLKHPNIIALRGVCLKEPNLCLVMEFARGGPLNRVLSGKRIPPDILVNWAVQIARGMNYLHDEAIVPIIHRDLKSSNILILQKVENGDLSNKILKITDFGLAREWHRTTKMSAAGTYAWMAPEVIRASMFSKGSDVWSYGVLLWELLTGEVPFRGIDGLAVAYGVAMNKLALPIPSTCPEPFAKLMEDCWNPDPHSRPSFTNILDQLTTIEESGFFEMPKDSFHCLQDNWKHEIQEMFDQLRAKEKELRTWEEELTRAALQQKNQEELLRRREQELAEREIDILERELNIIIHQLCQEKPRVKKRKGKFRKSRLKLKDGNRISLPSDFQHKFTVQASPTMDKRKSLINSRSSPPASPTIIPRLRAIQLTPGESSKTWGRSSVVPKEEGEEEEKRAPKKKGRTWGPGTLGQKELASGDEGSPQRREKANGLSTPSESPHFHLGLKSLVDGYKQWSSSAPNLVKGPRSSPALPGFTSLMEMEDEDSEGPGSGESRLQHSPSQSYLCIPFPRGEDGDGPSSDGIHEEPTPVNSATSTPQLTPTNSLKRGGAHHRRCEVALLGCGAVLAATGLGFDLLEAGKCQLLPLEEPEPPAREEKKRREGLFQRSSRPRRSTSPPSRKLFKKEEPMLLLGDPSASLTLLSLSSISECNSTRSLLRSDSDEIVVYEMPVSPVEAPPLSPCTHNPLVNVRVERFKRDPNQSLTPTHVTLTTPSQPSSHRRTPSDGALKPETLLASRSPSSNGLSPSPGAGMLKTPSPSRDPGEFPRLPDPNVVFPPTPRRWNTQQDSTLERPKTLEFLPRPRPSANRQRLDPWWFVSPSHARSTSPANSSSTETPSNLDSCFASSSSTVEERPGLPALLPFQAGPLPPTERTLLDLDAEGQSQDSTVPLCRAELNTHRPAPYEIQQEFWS

[11] = target: Citron Rho-interacting kinase (Homo sapiens) (UniProt O14578); experiment: Inhibition of CIT (unknown origin) assessed as remaining activity at 1 uM by Kinome scan method relative to control
[12] = target: Serine/threonine-protein kinase ULK2 (Homo sapiens) (UniProt Q8IYT8); experiment: Inhibition of ULK2 (unknown origin) assessed as remaining activity at 1 uM by Kinome scan method relative to control

Sequence of 3-phosphoinositide-dependent protein kinase 1 (Homo sapiens) (O15530 whole entry, looked up): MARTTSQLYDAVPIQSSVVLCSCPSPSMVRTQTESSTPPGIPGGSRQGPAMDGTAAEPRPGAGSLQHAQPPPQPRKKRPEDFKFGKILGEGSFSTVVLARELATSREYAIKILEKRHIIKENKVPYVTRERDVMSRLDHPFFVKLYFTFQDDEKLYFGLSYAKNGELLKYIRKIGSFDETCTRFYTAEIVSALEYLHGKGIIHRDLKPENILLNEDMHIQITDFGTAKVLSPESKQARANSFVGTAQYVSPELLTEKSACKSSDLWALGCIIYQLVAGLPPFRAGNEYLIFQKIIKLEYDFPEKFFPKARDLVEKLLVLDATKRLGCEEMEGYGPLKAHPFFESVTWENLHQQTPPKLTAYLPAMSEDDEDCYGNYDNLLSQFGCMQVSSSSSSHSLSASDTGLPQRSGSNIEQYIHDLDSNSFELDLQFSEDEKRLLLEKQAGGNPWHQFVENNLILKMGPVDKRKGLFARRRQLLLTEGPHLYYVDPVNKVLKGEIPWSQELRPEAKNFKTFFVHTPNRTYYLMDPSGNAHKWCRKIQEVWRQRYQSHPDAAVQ

In the case of `O=C1c2ccc(Nc3ccc(F)cc3F)cc2CCc2ccc(OC[C@H](O)CO)cc21` [Skepinone-L], the Activity [1] is reported as 97%, the Activity [2] is reported as 33% and the Activity [3] is reported as 100%. It also gave an Activity [4] of 95%, an Activity [5] of 83% and an Activity [6] of 93%. The Activity [7] was 95%, the Activity [8] was 110% and the Activity [9] was 100%. It also gave an Activity [10] of 90%, an Activity [11] of 92% and an Activity [12] of 100%.
